Measurements reported in patent US9181234B2, “Antibacterial compounds” (priority 2010, dated 2015).
In brackets after ≈: the same amount, converted by molar mass.

Key:
[1] = tested on: Enterococcus faecalis (Isolate ID ATCC 29212); test: Antibacterial activity, MIC, E. faecalis; format: cell-based; conditions: Gram positive strain, broth microdilution or agar dilution; for MIC: Enterococcus faecalis, ATCC29212
Procedure, shortened: (§1)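 Susceptibility testing run in liquid or on solid media, with MIC values obtained by the CLSI-described broth microdilution or agar dilution method.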

[2] = physchem; conditions: for solubility at 24 h: pH 7.4, aqueous buffer, kinetic from dmso stock
Procedure, shortened: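 DMSO doubling dilutions were diluted twenty-fold into 100 mM citrate (pH 4), PBS (pH 7.4) or carbonate-bicarbonate (pH 9). After 24 h equilibration at room temperature, absorbance was read at 620 nm. The reported value is the highest concentration without measurable precipitate.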

[3] = tested on: Staphylococcus aureus (Isolate ID ATCC 29213); test: Antibacterial activity, MIC, S. aureus; format: cell-based; conditions: broth microdilution or agar dilution; for MIC: Staphylococcus aureus, ATCC29213, Gram positive strain
Procedure, shortened: as §1

[4] = tested on: Streptococcus pyogenes (Isolate ID ATCC 51339); test: Antibacterial activity, MIC, S. pyogenes; format: cell-based; conditions: broth microdilution or agar dilution; for MIC: Streptococcus pyogenes, ATCC51339, Gram positive strain
Procedure, shortened: as §1

[5] = tested on: Haemophilus influenzae (Isolate ID ATCC 49247); test: Antibacterial activity, MIC, H. influenzae; format: cell-based; conditions: Gram negative strain, broth microdilution or agar dilution; for MIC: Haemophilus influenzae, ATCC49247
Procedure, shortened: as §1

SMILES	MIC [1]	solubility at 24 h ([2]; Solubility (pH 7.4))	solubility at 24 h ([2]; Solubility Range)	MIC [3]	MIC [4]	MIC [5]	solubility at 24 h ([2]; Max Solubility)	solubility at 24 h ([2]; Solubility Range (maximum solubility))	Antibacterial Activity (MIC) E. faecalis (ATCC 29212) [1]	Max Solubility ([2]; pH 4)	Solubility (pH 7.4) ([2]; pH 7.4)	Antibacterial Activity (MIC) S. aureus (ATCC 29213) ([3]; Gram positive strain)	Antibacterial Activity (MIC) S. pyogenes (ATCC 51339) ([4]; Gram positive strain)	Antibacterial Activity (MIC) H. influenzae (ATCC 49247) [5]
CCNC(=O)Nc1nc2cc(-c3cnc(N4CCC(C#N)(C(=O)OCC)CC4)nc3)cc(-c3ccccn3)c2s1 [Compound 174]	0.25 to 1 µg/mL (≈ 0.449 to 1.8 µM)	3.12 µg/mL (≈ 5.61 µM)	< 12.5 µg/mL	> 16 µg/mL	0.25 to 1 µg/mL (≈ 0.449 to 1.8 µM)	> 16 µg/mL								
CCNC(=O)Nc1nc2cc(-c3cnc(N4CCC(Cc5ccccc5)(C(=O)OCC)CC4)nc3)cc(-c3ccccn3)c2s1 [Compound 177]	> 16 µg/mL	12.5 µg/mL (≈ 20.1 µM)	12.5 to 400 µg/mL (≈ 20.1 to 643 µM)	> 16 µg/mL	> 16 µg/mL	> 16 µg/mL								
CCNC(=O)Nc1nc2cc(-c3cnc(N4CCC(C)(C(=O)OCC)CC4)nc3)cc(C3CCN(C(C)=O)CC3)c2s1 [Compound 178]									D (“D” activity >16 μg/mL)	6.25 µg/mL	3.125 μg/mL	D (“D” activity >16 μg/mL)	C (“C” activity >1.0 μg/mL-16 μg/mL)	D (“D” activity >16 μg/mL)
CCNC(=O)Nc1nc2cc(-c3cnc(N4CCC(C(=O)OC)(C(F)(F)F)C4)nc3)cc(-c3ccccn3)c2s1 (centres unmarked) [Compound 180]	0.25 to 1 µg/mL (≈ 0.437 to 1.75 µM)	6.25 µg/mL (≈ 10.9 µM)	< 12.5 µg/mL	1 to 16 µg/mL (≈ 1.75 to 28 µM)	0.25 to 1 µg/mL (≈ 0.437 to 1.75 µM)	> 16 µg/mL								
CCNC(=O)Nc1nc2cc(-c3cncc(N4CCC(C)(C(=O)O)CC4)c3)cc(-c3ccccn3)c2s1 [Compound 181]	≤ 0.25 µg/mL	≥ 800 µg/mL	> 800 µg/mL	0.25 to 1 µg/mL (≈ 0.484 to 1.94 µM)	≤ 0.25 µg/mL	1 to 16 µg/mL (≈ 1.94 to 31 µM)	≥ 800 µg/mL	> 800 µg/mL						
CCNC(=O)Nc1nc2cc(-c3ccc(C4=NOC(C)(C(=O)OCC)C4)nc3)cc(-c3ccccn3)c2s1 (centres unmarked) [Compound 184]	≤ 0.25 µg/mL	6.25 µg/mL (≈ 11.8 µM)	< 12.5 µg/mL	≤ 0.25 µg/mL	≤ 0.25 µg/mL	1 to 16 µg/mL (≈ 1.88 to 30.2 µM)								

More lines, main results first:

MIC [1]	solubility at 24 h ([2]; Solubility (pH 7.4))	solubility at 24 h ([2]; Solubility Range)	MIC [3]	MIC [4]	MIC [5]	solubility at 24 h ([2]; Max Solubility)	solubility at 24 h ([2]; Solubility Range (maximum solubility))	SMILES	Antibacterial Activity (MIC) E. faecalis (ATCC 29212) [1]	Max Solubility ([2]; pH 4)	Solubility (pH 7.4) ([2]; pH 7.4)	Antibacterial Activity (MIC) S. aureus (ATCC 29213) ([3]; Gram positive strain)	Antibacterial Activity (MIC) S. pyogenes (ATCC 51339) ([4]; Gram positive strain)	Antibacterial Activity (MIC) H. influenzae (ATCC 49247) [5]
≤ 0.25 µg/mL	50 µg/mL (≈ 93.7 µM)	12.5 to 400 µg/mL (≈ 23.4 to 750 µM)	0.25 to 1 µg/mL (≈ 0.469 to 1.87 µM)	≤ 0.25 µg/mL	1 to 16 µg/mL (≈ 1.87 to 30 µM)			CCNC(=O)Nc1nc2cc(-c3cnc(N4CCC(O)(C(=O)OC)CC4)nc3)cc(-c3ccccn3)c2s1 [Compound 173]						
≤ 0.25 µg/mL	25 µg/mL (≈ 45.7 µM)	12.5 to 400 µg/mL (≈ 22.8 to 730 µM)	0.25 to 1 µg/mL (≈ 0.457 to 1.83 µM)	≤ 0.25 µg/mL	1 to 16 µg/mL (≈ 1.83 to 29.2 µM)			CCNC(=O)Nc1nc2cc(-c3cnc(N4CCC(OC)(C(=O)OC)CC4)nc3)cc(-c3ccccn3)c2s1 [Compound 175]						
> 16 µg/mL	100 µg/mL (≈ 164 µM)	12.5 to 400 µg/mL (≈ 20.5 to 656 µM)	> 16 µg/mL	0.25 to 1 µg/mL (≈ 0.41 to 1.64 µM)	> 16 µg/mL			CCNC(=O)Nc1nc2cc(-c3cnc(N4CCC(C(=O)OCC)(S(C)(=O)=O)CC4)nc3)cc(-c3ccccn3)c2s1 [Compound 176]						
0.25 to 1 µg/mL (≈ 0.497 to 1.99 µM)	100 µg/mL (≈ 199 µM)	12.5 to 400 µg/mL (≈ 24.9 to 796 µM)	1 to 16 µg/mL (≈ 1.99 to 31.8 µM)	≤ 0.25 µg/mL	1 to 16 µg/mL (≈ 1.99 to 31.8 µM)			CCNC(=O)Nc1nc2cc(-c3ccc(C4=NOC(C)(C(=O)O)C4)nc3)cc(-c3ccccn3)c2s1 (centres unmarked) [Compound 183]						
≤ 0.25 µg/mL	6.25 µg/mL (≈ 10.8 µM)	< 12.5 µg/mL	0.25 to 1 µg/mL (≈ 0.432 to 1.73 µM)	1 to 16 µg/mL (≈ 1.73 to 27.6 µM)	> 16 µg/mL			CCNC(=O)Nc1nc2cc(-c3cnc(N4CCC(C(N)=O)(c5ccccc5)CC4)nc3)cc(-c3ccccn3)c2s1 [Compound 185]						
